Test results reported in patent publication US20120095059A1, “Compositions and Methods for Treating Type II Diabetes and Related Disorders” (priority 2010, published 2012).

How the values were obtained:
[1] = tested on: patients with type 2 diabetes; experiment: 12-week, double blind, randomized, parallel group, multi-center study of pioglitazone, glimepiride or their combination; format: in vivo, human; conditions: after 12 weeks, pioglitazone 15 mg per day, glimepiride 2 mg per day, or both; for HbA1c levels, change from baseline: baseline HbA1c greater than 8%
Method: Objective: […] Research Design and Methods: The study was a 12-week, double blind, randomized, parallel group, multi-center study, with 120 patients randomized to receive pioglitazone (15 mg per day), glimepiride (2 mg per day), or a combination of pioglitazone plus glimepiride (15 mg per day; 2 mg per day). Patients started a strict dietary regimen 1 week before receiving the first dose of each treatment. The study was open to patients with type 2 diabetes mellitus and having HbA1c levels greater than 8%. Patients were over 30 years of age and have had diabetes for at least 1 year.

[2] = tested on: patients with advanced type 2 diabetes; experiment: Predicted effect of adding metformin as a third agent, based upon a meta-analysis of metformin clinical trials; format: in vivo, human; conditions: metformin added as third agent to pioglitazone plus glimepiride
Excerpt: Patients having HbA1c levels greater than 7% have a high risk for developing cardiovascular disease and other complications of diabetes. Thus, in these patients, it is necessary to add a third agent to the regimen in order to obtain HbA1c values below 7%. Based upon a meta-analysis of metformin clinical trials, the addition of metformin as a third agent to this regimen will produce an additional reduction in HbA1c of about 1% and will contribute to adequate glycemic control in such patients with advanced type 2 diabetes. The addition of metformin in this triple therapy provides a synergistic mechanism of action, both improving insulin sensitivity and suppressing hepatic glucose output.

[3] = tested on: patients with type 2 diabetes mellitus; conditions: monotherapy; Rosenstock et al., Diabetes Care 25:1529-1533 (2002); cited from earlier work

SMILES	fasting blood glucose, decrease from baseline [1] [mg/dL]	HbA1c levels, change from baseline [1] [%]	additional reduction in HbA1c [2]	reduction in HbA1c [3] [%]
CCC1=C(C)CN(C(=O)NCCc2ccc(S(=O)(=O)NC(=O)N[C@H]3CC[C@H](C)CC3)cc2)C1=O [glimepiride]	-22	−0.98		
CN(C)C(=N)N=C(N)N [metformin]			about 1%	
CC(C)[C@H]1CC[C@H](C(=O)N[C@H](Cc2ccccc2)C(=O)O)CC1 [nateglinide]				0.6
CCc1ccc(CCOc2ccc(CC3SC(=O)NC3=O)cc2)nc1 (stereo not drawn) [pioglitazone]	-28	−0.14		
